Legend:
[1] = target: T1, CtBP2-p300^BRD interaction (Mus musculus, UniProt B2RWS6+P56546); experiment: AlphaScreen of GST-p300^BRD and His-CtBP2 interaction; format: binding
T1 construct: R1 (1-1000 amino acids, aa), R2 (1001–1201 aa), R3 (1202–1810 aa); made in house; host or cells: E. coli BL21
Procedure: Plasmids pGEX-6P-1-p300^BRD and pET-28a-CtBP2 (Table S2) were transformed into BL21 competent cells. Upon 1 mM isopropyl β-d-1-thiogalactopyranoside (IPTG) induction, GST-p300BRD and His-CtBP2 proteins were isolated via Glutathione Agarose Beads (Thermo Fisher; #16,100) and Ni-NTA Agarose (Thermo Fisher; #R90115), respectively. A comprehensive small molecule library of 4313 compounds derived from various botanical sources, including Lonicera japonica, Forsythia suspense, Houttuynia cordata, Coptis chinensis, Phellodendron, Pulsatilla chinensis, Lygodium japonicum, Plantago asiatica, and Portulaca olerace, was analyzed through mass spectrometry. […] Post addition of 5 µM from each botanical molecule and a 2-hour incubation at 25 °C, the resultant AlphaScreen signals from 96-well plates (PerkinElmer, #6,008,350) were deciphered with an Envision Multilabel Reader (PerkinElmer, #2105-0010).
To probe this interaction, we established an AlphaScreen system that utilized GST-p300^BRD and His-CtBP2, binding to donor and acceptor beads, respectively (Fig. 4C). […] In vitro assays assessed the effects of PNSC928 on the CtBP2-p300^BRD interaction. […] Furthermore, we assessed the impact of combined LPS and PNSC928 treatment on the expression of key molecules in the NF-κB signaling pathway.

NF-κB signaling pathway = experiment: Immunoblots of NF-κB signaling pathway molecules in LPS-treated MPAEpiC cells; format: cell-based, mouse; conditions: LPS 200 ng/mL + PNSC928 0, 23.6, and 47.2 µM, 6 h
Procedure: For LPS treatment, different knockdown (KD) cell lines—Control^KD, CtBP2^KD, p300^KD, and p65^KD, all derived from MPAEpiC—were seeded in 12-well plates and cultured at 37 °C until reaching 80% confluence. The cells were then treated with 200 ng/mL of LPS for 6 h, washed three times with PBS, and subjected to the required experiments. For experiments involving inhibitors of CtBP2, p300, and NF-κB, as well as the compound PNSC928, MPAEpiC, RAW264.7, FL83B, TKPTS, and HL-1 cells were seeded in 12-well plates and cultured at 37 °C to reach 80% confluence. Cells were then cotreated with 200 ng/mL LPS along with varying concentrations of the following chemicals: MTOB (0, 5, 10, or 20 mM), NSC95397 (0, 10, 20, or 40 µM), C646 (0, 3, 6, or 12 µM), A-485 (0, 5, 10, or 20 nM), TPCA1 (0, 150, 300, or 600 nM), BOT64 (0, 1, 2, or 4 µM), or PNSC928 (0, 11.8, 23.6, or 47.2 µM). After 6 h of treatment, cells were washed three times with PBS before proceeding with further experiments.
Cellular and mouse lung tissue lysates were prepared using the RIPA buffer (Thermo Fisher; #PI89900) supplemented with 1 × complete protease inhibitor cocktail (Thermo Fisher; #87,785). Following a 10-minute centrifugation at 13,000 g, proteins (50 µg) from the cleared lysate were resolved via 10% SDS-PAGE. These separated proteins were electroblotted onto PVDF membranes (Thermo Fisher; #88,585). […]

T1 sequence (B2RWS6 1001-1201 limits assumed): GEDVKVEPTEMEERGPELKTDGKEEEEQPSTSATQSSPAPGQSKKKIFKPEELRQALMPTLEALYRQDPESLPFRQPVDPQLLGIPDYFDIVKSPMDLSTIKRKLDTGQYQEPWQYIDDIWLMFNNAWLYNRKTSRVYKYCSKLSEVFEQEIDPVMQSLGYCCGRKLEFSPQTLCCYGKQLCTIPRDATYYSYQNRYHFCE
T1 sequence (P56546 whole entry, the tested form may be a part): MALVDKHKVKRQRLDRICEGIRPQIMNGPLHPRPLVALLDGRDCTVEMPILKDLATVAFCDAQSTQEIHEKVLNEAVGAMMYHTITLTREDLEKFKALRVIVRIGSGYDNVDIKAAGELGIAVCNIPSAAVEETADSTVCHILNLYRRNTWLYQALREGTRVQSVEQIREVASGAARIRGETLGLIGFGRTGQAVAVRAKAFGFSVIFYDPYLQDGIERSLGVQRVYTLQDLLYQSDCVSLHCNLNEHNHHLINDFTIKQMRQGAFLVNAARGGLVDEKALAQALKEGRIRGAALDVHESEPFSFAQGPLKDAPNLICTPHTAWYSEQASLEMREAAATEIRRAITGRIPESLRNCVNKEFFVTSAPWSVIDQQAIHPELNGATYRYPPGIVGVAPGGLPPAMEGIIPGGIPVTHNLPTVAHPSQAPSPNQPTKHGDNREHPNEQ

`CC(=CCCC1=CCC(C2COC(=O)C2)OC1O)CCC1=C(C)CCCC1(C)C` (stereo not drawn) [PNSC928] was tested, and the Alpha signal ([1]; high-throughput screening, 5 µM compound, signal reduced from 17,500) was 489, the IC50 ([1]; read-out: IC50 disrupting CtBP2-p300^BRD interaction) was 23.6 ± 3.1 µM and the “Effect on LPS-induced pIKKα, pIκBα, IκBα levels and nuclear translocation of p65 and p50” value (NF-κB signaling pathway) was “did not alter the effects of LPS”.
